Experimental data from ChEMBL document CHEMBL1201862, “PubChem BioAssay data set” (2004).
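Protocol summary: plate cells (96-well), add compound at 5 concentrations, incubate 48 h, interpolate endpoints linearly. The concentration for 50% growth inhibition is given as GI50.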 Activity calls are given as the source filed them. Rule as the data show it: active = GI50 up to about 1.1 µM and inactive = higher.

Assays:
Assay in all cases: inhibition of tumour cell growth, NCI panel, 48 h
MCF7 = test system: MCF7
HCC 2998 = test system: HCC 2998
MDA-MB-231 = test system: MDA-MB-231
DU-145 = test system: DU-145
HOP-62 = test system: HOP-62
CAKI-1 = test system: CAKI-1
HT-29 = test system: HT-29
TK-10 = test system: TK-10
RXF 393 = test system: RXF 393
NCI/ADR-RES = test system: NCI/ADR-RES
COLO 205 = test system: COLO 205
RPMI-8226 = test system: RPMI-8226
K562 = test system: K562
OVCAR-3 = test system: OVCAR-3
Hs-578T = test system: Hs-578T
SF-295 = test system: SF-295
OVCAR-8 = test system: OVCAR-8
SF-268 = test system: SF-268
PC-3 = test system: PC-3
MDA-N = test system: MDA-N

Compound | GI50 (MCF7) | GI50 (HCC 2998) | GI50 (MDA-MB-231) | GI50 (DU-145) | GI50 (HOP-62) | GI50 (CAKI-1) | GI50 (HT-29) | GI50 (TK-10) | GI50 (RXF 393) | GI50 (NCI/ADR-RES) | GI50 (COLO 205) | GI50 (RPMI-8226) | GI50 (K562) | GI50 (OVCAR-3) | GI50 (Hs-578T) | GI50 (SF-295) | GI50 (OVCAR-8) | GI50 (SF-268) | GI50 (PC-3) | GI50 (MDA-N)
CC[C@@]1(O)C(=O)OCc2c1cc1n(c2=O)Cc2cc3cc4c(cc3nc2-1)OCO4 | 0.01 µM (active) | 0.0238 µM (active) | 0.357 µM (active) | < 0.001 µM (active) | < 0.001 µM (active) | 0.00173 µM (active) | 0.00472 µM (active) | 0.502 µM (active) | 0.00221 µM (active) | 0.00175 µM (active) | 0.0439 µM (active) | 0.0281 µM (active) | 0.00304 µM (active) | 0.0551 µM (active) | 0.244 µM (active) | < 0.001 µM (active) | 0.00189 µM (active) | < 0.001 µM (active) | 0.00746 µM (active) | 
C/C(=C\c1ccc2c(c1)OCO2)[N+](=O)[O-] | 0.205 µM (active) | 3.54 µM (inactive) | 6.49 µM (inactive) | 2.23 µM (inactive) | 3.56 µM (inactive) | 2.28 µM (inactive) | 2.98 µM (inactive) | 2.45 µM (inactive) | 1.46 µM (inactive) | 6.04 µM (inactive) | 1.66 µM (inactive) | 0.225 µM (active) | 1.64 µM (inactive) | 1.66 µM (inactive) | 5.14 µM (inactive) | 2.85 µM (inactive) | 2.77 µM (inactive) | 3.44 µM (inactive) | 2.64 µM (inactive) | 
Clc1sc(Cl)c2c1[C@@H](Cl)C[C@@H]2Cl | 52.4 µM (inactive) | 63.4 µM (inactive) | > 100 µM (inactive) | > 100 µM (inactive) | > 100 µM (inactive) | 94.6 µM (inactive) | > 100 µM (inactive) | > 100 µM (inactive) |  | > 100 µM (inactive) | > 100 µM (inactive) |  | 48.5 µM (inactive) | > 100 µM (inactive) | 38.1 µM (inactive) | > 100 µM (inactive) | > 100 µM (inactive) | 62.1 µM (inactive) |  | > 100 µM (inactive)
C=CC1CCC[N+]1(CC(=O)OCC)Cc1ccccc1 (stereo not drawn) | > 100 µM (inactive) | > 100 µM (inactive) | > 100 µM (inactive) | > 100 µM (inactive) | > 100 µM (inactive) |  | > 100 µM (inactive) | > 100 µM (inactive) |  | > 100 µM (inactive) | > 100 µM (inactive) | > 100 µM (inactive) | > 100 µM (inactive) | > 100 µM (inactive) |  | > 100 µM (inactive) | > 100 µM (inactive) | > 100 µM (inactive) | > 100 µM (inactive) | > 100 µM (inactive)
CC(C)c1cc(=O)[nH]c2cc(N)ccc12 | > 100 µM (inactive) | > 100 µM (inactive) | > 100 µM (inactive) | > 100 µM (inactive) | > 100 µM (inactive) | > 100 µM (inactive) | > 100 µM (inactive) |  | > 100 µM (inactive) | > 100 µM (inactive) | > 100 µM (inactive) | > 100 µM (inactive) | > 100 µM (inactive) | > 100 µM (inactive) |  | > 100 µM (inactive) | > 100 µM (inactive) |  | > 100 µM (inactive) | > 100 µM (inactive)
C/C(=N/NC(=S)Nc1ccc(Cl)cc1)c1cccc(/C(C)=N\NC(=S)Nc2ccc(Cl)cc2)n1 | 1.93 µM (inactive) | 12.2 µM (inactive) | 4.14 µM (inactive) | 26.1 µM (inactive) | 2.76 µM (inactive) | 3.72 µM (inactive) | 10.2 µM (inactive) | 2.81 µM (inactive) | 4.01 µM (inactive) | 2.59 µM (inactive) | 3.56 µM (inactive) | 4.74 µM (inactive) | 5.02 µM (inactive) | 1.49 µM (inactive) |  | 3.34 µM (inactive) | 1.85 µM (inactive) | 23.8 µM (inactive) | 3.47 µM (inactive) | 17.1 µM (inactive)
CCC1(O)C(=O)OCc2c1cc1n(c2=O)Cc2cc3cc4c(cc3nc2-1)OCO4 (stereo not drawn) | < 0.01 µM (active) | 0.0233 µM (active) | 0.346 µM (active) | < 0.01 µM (active) | < 0.01 µM (active) | < 0.01 µM (active) | 0.0113 µM (active) | 0.31 µM (active) | < 0.01 µM (active) | < 0.01 µM (active) | 0.0713 µM (active) | 0.0236 µM (active) | 0.0142 µM (active) | 0.0466 µM (active) | 0.857 µM (active) | < 0.01 µM (active) | < 0.01 µM (active) | < 0.0363 µM (active) | 0.204 µM (active) | 
COc1ccc(-c2nc3ncccn3c2-c2ccc(S(C)(=O)=O)cc2)cc1 | 22.3 µM (inactive) |  | > 100 µM (inactive) | > 100 µM (inactive) | > 100 µM (inactive) | 24.9 µM (inactive) | > 100 µM (inactive) |  |  | > 100 µM (inactive) | > 100 µM (inactive) | 41.7 µM (inactive) | > 100 µM (inactive) | 75.7 µM (inactive) | > 100 µM (inactive) | > 100 µM (inactive) | > 100 µM (inactive) | 35.2 µM (inactive) | > 100 µM (inactive) | 
CCOC(=O)c1c(-c2ccccc2)nc2c(OC)nccn12 | > 100 µM (inactive) | > 100 µM (inactive) | > 100 µM (inactive) | > 100 µM (inactive) | > 100 µM (inactive) | > 100 µM (inactive) | > 100 µM (inactive) | 60.5 µM (inactive) | 15.4 µM (inactive) | > 100 µM (inactive) | > 100 µM (inactive) | > 100 µM (inactive) | > 100 µM (inactive) | > 100 µM (inactive) | > 100 µM (inactive) | > 100 µM (inactive) | > 100 µM (inactive) | > 100 µM (inactive) | > 100 µM (inactive) | 
CC(=O)OC(CN1CCN(c2ccccn2)CC1)Cn1sc2nc(C)cc(C)c2c1=O (stereo not drawn) | 17.9 µM (inactive) | 19.5 µM (inactive) | 17.9 µM (inactive) | 19 µM (inactive) | 28.8 µM (inactive) | 18.9 µM (inactive) | 18.6 µM (inactive) | 17.3 µM (inactive) | 20.2 µM (inactive) | 27 µM (inactive) | 15.8 µM (inactive) | 5.12 µM (inactive) | 32.7 µM (inactive) | 21.2 µM (inactive) | 20.7 µM (inactive) | > 100 µM (inactive) | 28.7 µM (inactive) | 17.3 µM (inactive) | 17.5 µM (inactive) | 
CCCCCCOC(=O)C(N)Cc1ccc(OC)cc1 (stereo not drawn) | > 100 µM (inactive) |  | > 100 µM (inactive) | > 100 µM (inactive) | > 100 µM (inactive) | > 100 µM (inactive) | > 100 µM (inactive) | > 100 µM (inactive) | > 100 µM (inactive) | > 100 µM (inactive) | > 100 µM (inactive) |  | > 100 µM (inactive) | > 100 µM (inactive) | > 100 µM (inactive) | > 100 µM (inactive) | > 100 µM (inactive) | > 100 µM (inactive) | > 100 µM (inactive) | 
